Measurements as given in publication PMC5571359, “Screening the Medicines for Malaria Venture Pathogen Box across Multiple Pathogens Reclassifies Starting Points for Open-Source Drug Discovery” (Antimicrobial Agents and Chemotherapy, 2017).
Read-outs that look alike come from different tables or passages of the source.

Key:
[1] = tested on: T. cruzi intracellular amastigotes; experiment: Intracellular anti-Trypanosoma cruzi image-based assay (amastigotes); type: cell-based; conditions: Trypanosoma cruzi; for Emax: PBox kinetoplastid set compounds active against T. cruzi alone, read-out: Emax against T. cruzi (subefficacious effect); for IC50: intracellular amastigotes, read-out: T cruzi Discovery Biology IC50
T. brucei rhodesiense = conditions: ref Pbox supporting information, cited from earlier work; for IC50: read-out: T .b. rohdensie Pbox IC50
T. brucei brucei = conditions: ref Pbox supporting information; read-out: T.b. brucei Pbox IC50; cited from earlier work
[2] = tested on: T. cruzi C4 β-galactosidase reporter parasite in MRC 5SV2 host cells; conditions: ref Pbox supporting information; read-out: T. cruzi Pbox IC50; cited from earlier work
HepG2 = conditions: cited from earlier work
HEK293 cells = experiment: HEK293 resazurin cell cytotoxicity assay; conditions: for IC50 / inhibition at 20 µM: Homo sapiens, HEK293, read-out: HEK % Inhibition 20uM/IC50 Discovery Biology
[3] = tested on: L. infanium (macrophages); parameters: method as in Pbox supporting information; conditions: ref Pbox supporting information; cited from earlier work
[4] = tested on: T. b. brucei 427 bloodstream trypanosomes; experiment: T. b. brucei resazurin viability assay; type: cell-based, Trypanosoma brucei brucei
[5] = tested on: NF54-pfs16-LUC-GFP stage IV gametocytes; experiment: Plasmodium falciparum late stage gametocyte (LSG) image-based assay; type: cell-based
[6] = tested on: Plasmodium falciparum 3D7 asexual blood stage; experiment: microbe, parasite or virus in culture; conditions: 3D7, read-out: Antiplasmodial IC50 (ABS), PBox compounds, P. falciparum 3D7
[7] = Trypanosoma brucei; read-out: T b.brucei Discovery Biology IC50
[8] = HepG2, ref PBox supporting information

SMILES | IC50 (T. brucei rhodesiense) | IC50 (T. brucei brucei) | IC50 [2] | IC50 (HEK293 cells) | IC50 [3] | IC50 [4, 7] | HepG2 PBox CC20 (HepG2; [8]) | further results
CO[C@@H]1CN(c2ccc(C#CC3(O)CN4CCC3CC4)c(Cc3ccccc3)n2)C[C@H]1O (stereo partly shown) [MMV688415] | 4 µM | 16.1 µM | < 0.13 µM | > 20 µM | 17.3 µM | – | – | Emax [1]: < 100%; IC50 [1]: 0.1 µM; HepG2 PBox CC20 (HepG2): 38.4 µM
CC1=Nc2ccc(Cl)cc2C(O)(c2ccc(C)cc2)N1CCN1CCCCC1 (stereo not shown) [MMV688279] | 0.43 µM | 0.98 µM | 4.04 µM | > 20 µM | 4.06 µM | 4.52 µM | 10.0 µM | IC50 ([5]; Plasmodium falciparum, NF54, read-out: Antiplasmodial IC50 (GAM / LSG), PBox compounds, stage IV gametocytes, single determination): 2.4 µM; IC50 ([5]; read-out: Antiplasmodial IC50 (GAM / LSG), PBox compounds, stage IV gametocytes, single determination): 2.35 µM; IC50 [6]: 0.32 µM
N=C(N)c1ccc(-c2cc(-c3ccccc3)on2)cc1 [MMV688514] | 1.08 µM | 4.06 µM | 4.04 µM | > 20 µM | 2.54 µM | 3.53 µM | 2.6 µM | –
CCN(CC)S(=O)(=O)c1ccc(C(=O)Nc2cc(C)nn2-c2nc(C)c(C)c(=O)[nH]2)cc1 [MMV595321] | 1.7 µM | 5.3 µM | 1.96 µM | – | 6.87 µM | 4.34 µM | – | activity in the HEK293 cytotoxicity assay (HEK293 cells): comparable activity; inhibition at 20 µM (HEK293 cells): 74%
Cc1cccnc1NC(=O)c1cccc(OCc2c(C)noc2C)c1 [MMV688793] | 0.65 µM | 2.07 µM | > 64 µM | > 20 µM | > 64 µM | 1.16 µM | – | IC50 ([4]; Trypanosoma brucei; PBox compounds; read-out: IC50 T. brucei brucei (Discovery Biology)): 1.2 µM
CC(=O)Nc1ccc(-c2noc(CC3CCCN(Cc4cccc(F)c4C)C3)n2)cc1 (stereo not shown) [MMV689061] | 25.1 µM | 32.3 µM | 2.8 µM | – | 1.59 µM | – | – | –
COc1cc(C2=NCCN2)ccc1-c1cn(-c2cccc(C3=NCCN3)c2)nn1 [MMV688407] | 3.72 µM | > 32 µM | 25 µM | – | > 32 µM | – | 22.9 µM | –
CO[C@@H](C(=O)N1Cc2n[nH]c(NC(=O)c3ccc(N4CCN(C)CC4)cc3)c2C1)c1ccccc1 [MMV676600] | 0.37 µM | 1.02 µM | 6.48 µM | – | 4.06 µM | 1.34 µM | 4.8 µM | inhibition at 20 µM (HEK293 cells): 45%
CC(C)(C)C(O)C(Oc1ccc(-c2ccccc2)cc1)n1cncn1 (stereo not shown) [MMV688942, Bitertanol] | 28 µM | 32.9 µM | 0.055 µM | > 20 µM | > 64 µM | – | – | Emax [1]: < 100%; IC50 [1]: 0.08 µM
COc1cc(C2=NCCN2)cc2cc(-c3ccc(C4=NCCN4)cc3)oc12 [MMV688362] | 0.78 µM | 14.5 µM | 13.3 µM | > 20 µM | > 32 µM | – | 14.3 µM | IC50 ([5]; Plasmodium falciparum, NF54, read-out: Pf Stage IV GAMS Discovery Biology IC50, stage IV gametocytes): 6.67 µM; IC50 [6]: 0.59 µM
CCOC(=O)c1noc(N)c1-c1ccccc1 [MMV1236379] | 0.46 µM | 1.22 µM | > 64 µM | – | > 64 µM | – | – | –
Clc1ccc(CN2CCN(C3=NCCN3)CC2)cc1Cl [MMV689060] | 30.1 µM | 31.6 µM | 6.57 µM | – | > 64 µM | – | – | –
COc1ccc(C2=NN(C3CCCCCC3)C(=O)[C@@H]3CC=CC[C@H]23)cc1OCCCCOc1ccc(-c2nn[nH]n2)cc1 [MMV690027] | – | 0.02 µM | – | > 20 µM | – | – | – | IC50 ([4]; Trypanosoma brucei, read-out: T b.brucei Discovery Biology IC50): 0.5 µM
COc1ccc(C2=NN(C3CCCCCC3)C(=O)C2(C)C)cc1OCCCCOc1ccc(-c2nn[nH]n2)cc1 [MMV690028] | – | 0.79 µM | – | > 20 µM | – | 2.25 µM | – | –
CC1=Nc2ccc(Cl)cc2C(c2ccccc2)N1CCNC(=O)CN(C)C (stereo not shown) [MMV688410] | 3.11 µM | 3.78 µM | 17.1 µM | – | 10.1 µM | – | 16.4 µM | –
COc1ccc(S(=O)(=O)Nc2ccc(CN3CCN(C(=O)c4cccc(C#N)c4)CC3)cc2)cc1 [MMV689029] | 0.4 µM | 0.5 µM | 2.7 µM | > 20 µM | 52.2 µM | 1.08 µM | – | IC50 [1]: 1.39 µM; activity against T. brucei rhodesiense (T. brucei rhodesiense): demonstrated activity
